Reference: publication PMC11245519, “Ubiquitous purine sensor modulates diverse signal transduction pathways in bacteria” (Nature Communications, 2024)
Like-named read-outs stand apart in the source and are kept apart here.

Key:
[1] = target: T1, R15 (WP_207952809-LBD) (Paenibacillus agricola, UniProt A0ABX0IZG8); test: Microcalorimetric titration (ITC) of the R15 LBD with ligands; assay type: binding, Paenibacillus sp. S3N08; settings: for Binding in microcalorimetric titration, R15 / Kd: 25 °C; for Binding in microcalorimetric titration, R15: pH 7.0; for Kd: pH 7.0, read-out: Dissociation constant, R15; for N value, R15: One binding site model, * = hyperbolic curve
[2] = system: R11 (WP_162024566-LBD); test: Microcalorimetric titration (ITC) of the R11 LBD with ligands; assay type: binding, Lentimonas sp. CC4; settings: 25 °C; for Binding in microcalorimetric titration, R11: pH 7.0
[3] = target: R4 (WP_199478134-LBD); assay type: binding, Marinomonas spartinae; settings: ITC, 25 °C, pH 8.0; read-out: Dissociation constant, R4
[4] = system: R13 (WP_167859577-LBD); assay type: binding, Paenibacillus cymbidii; settings: change in Tm, threshold 2 °C; 2 mM ligand (Supplementary Fig. 7)
[5] = target: T2, R1 (WP_219614703-LBD) (Aeromonas salmonicida, UniProt T0PLV6); test: Microcalorimetric titration (ITC) of the R1 LBD with ligands; assay type: binding; settings: for Kd: read-out: Dissociation constant, R1
[6] = target: T3, R14 (WP_021170906-LBD) (Sporomusa ovata, UniProt A0A0U1L1T7); test: Microcalorimetric titration (ITC) of the R14 LBD with ligands; assay type: binding; settings: for Kd: read-out: Dissociation constant, R14
[7] = target: T4, R6 (WP_185834821-LBD) (Vibrio cholerae, UniProt Q9KPY8); test: Thermal shift assay of the R6 LBD; assay type: binding; settings: change in Tm, threshold 2 °C
[8] = system: R10 (WP_110129388-LBD); assay type: binding, Coraliomargarita sinensis; settings: change in Tm, threshold 2 °C; for Binding in thermal shift assay, R10 (Supplementary Table 3): cells left empty in Table 3; for Binding in thermal shift assay, R10: 2 mM ligand (Supplementary Fig. 7)
[9] = system: R5 (WP_131005693-LBD); test: Thermal shift assay of the R5 LBD; assay type: binding, Clostridioides difficile; settings: change in Tm, threshold 2 °C
[10] = target: T1, R15 (WP_207952809-LBD); test: Thermal shift assay of the R15 LBD; assay type: binding, Paenibacillus sp. S3N08; settings: change in Tm, threshold 2 °C
[11] = target: R8 (WP_227113344-LBD) (Eggerthella sinensis, UniProt A0ABX9HL97); test: Microcalorimetric titration (ITC) of the R8 LBD with ligands; assay type: binding
[12] = system: R4 (WP_199478134-LBD); test: Thermal shift assay of the R4 LBD; assay type: binding, Marinomonas spartinae; settings: change in Tm, threshold 2 °C
[13] = target: T4, R6 (WP_185834821-LBD); test: biochemical; assay type: binding
[14] = system: R6 diguanylate cyclase (VC2224) expressed in P. putida KT2440 pCdrA::gfpC; assay type: cell-based
[15] = system: R11 (WP_162024566-LBD); test: Thermal shift assay of the R11 LBD; assay type: binding, Lentimonas sp. CC4; settings: change in Tm, threshold 2 °C
[16] = system: members of the family dCache_1PU (11 soluble LBDs); test: Thermal shift ligand screening of all dCache_1PU proteins (Biolog arrays PM3B and PM5); assay type: binding
[17] = system: R5 (WP_131005693-LBD); test: Microcalorimetric titration (ITC) of the R5 LBD with ligands; assay type: binding, Clostridioides difficile; settings: 25 °C, pH 7.0
[18] = target: T3, R14 (WP_021170906-LBD); test: Thermal shift assay of the R14 LBD; assay type: binding; settings: change in Tm, threshold 2 °C
[19] = target: T2, R1 (WP_219614703-LBD); assay type: binding; settings: change in Tm, threshold 2 °C
[20] = system: dCache_1PU domains (11 proteins analyzed); test: Summary of binding data (thermal shift assays and ITC) for the 11 dCache_1PU proteins; settings: of the 11 proteins analyzed
[21] = ITC, One binding site model, * = hyperbolic curve

T1 sequence (A0ABX0IZG8 entry or part of it): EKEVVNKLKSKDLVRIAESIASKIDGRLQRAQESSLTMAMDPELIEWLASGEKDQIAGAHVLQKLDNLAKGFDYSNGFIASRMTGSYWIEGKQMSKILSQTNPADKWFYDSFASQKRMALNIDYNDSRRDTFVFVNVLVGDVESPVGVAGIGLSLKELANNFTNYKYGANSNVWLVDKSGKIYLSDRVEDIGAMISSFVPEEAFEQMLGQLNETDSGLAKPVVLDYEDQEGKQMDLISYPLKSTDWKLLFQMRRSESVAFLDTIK
T3 sequence (A0A0U1L1T7 entry or part of it): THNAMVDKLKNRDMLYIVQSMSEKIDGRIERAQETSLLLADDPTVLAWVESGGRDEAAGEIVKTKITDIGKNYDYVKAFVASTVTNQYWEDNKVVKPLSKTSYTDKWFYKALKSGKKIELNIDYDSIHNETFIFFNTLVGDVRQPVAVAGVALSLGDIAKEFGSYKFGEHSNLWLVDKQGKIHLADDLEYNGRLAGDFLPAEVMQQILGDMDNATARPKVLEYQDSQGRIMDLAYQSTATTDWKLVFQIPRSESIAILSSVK

Structure (SMILES) | Binding in microcalorimetric titration, R15 [1] | Binding in microcalorimetric titration, R11 [2] | Kd [3] [µM] | Binding in thermal shift assay, R13 [4] | Kd ([5]; ITC, 25 °C, pH 7.0) [µM] | Kd ([6]; ITC, 25 °C) [µM] | Binding in thermal shift assay, R5 [9] | Binding in thermal shift assay, R4 [12] | N value, R14 [6, 21] | Shift in the thermal shift assays [16] | also measured
Nc1ncnc2c1ncn2[C@@H]1O[C@H](CO)[C@@H](O)[C@H]1O [Adenosine] | Nb^a | Nb^a | 88 ± 12 | Nts^b (no binding observed in thermal shift assays, i.e., compounds caused changes in the midpoint of protein unfolding (Tm) of less than 2 °C) | 1.1 ± 0.1 | 17 ± 4.1 | Nts^b (no binding observed in thermal shift assays, i.e., compounds caused changes in the midpoint of protein unfolding (Tm) of less than 2 °C) | – | – | – | N value, R1 [5]: 0.13; N value, R14 [6]: 0.41; Binding in thermal shift assay, R6 [7]: Nts^b (no binding observed in thermal shift assays, i.e., compounds caused changes in the midpoint of protein unfolding (Tm) of less than 2 °C); Binding in thermal shift assay, R10 (Supplementary Table 3) [8]: Nts (No binding observed in thermal shift assays, i.e. compounds caused changes in the midpoint of protein unfolding (Tm) of less than 2 ºC)
NC(=O)NC1NC(=O)NC1=O (stereo not shown) [Allantoin] | – | Nb^a | – | Nts^b (no binding observed in thermal shift assays, i.e., compounds caused changes in the midpoint of protein unfolding (Tm) of less than 2 °C) | – | – | Nts^b (no binding observed in thermal shift assays, i.e., compounds caused changes in the midpoint of protein unfolding (Tm) of less than 2 °C) | Nts^b (no binding observed in thermal shift assays, i.e., compounds caused changes in the midpoint of protein unfolding (Tm) of less than 2 °C) | – | – | Binding in thermal shift assay, R15 [10]: Nts^b (no binding observed in thermal shift assays, i.e., compounds caused changes in the midpoint of protein unfolding (Tm) of less than 2 °C); Binding in microcalorimetric titration, R14 ([6]; ITC, 25 °C): Nb^a; Binding in microcalorimetric titration, R8 ([11]; 25 °C, pH 6.0): Nb^a
Nc1cc[nH]c(=O)n1 [Cytosine] | Nb^a | Nb^a | 74 ± 15 | Nts^b (no binding observed in thermal shift assays, i.e., compounds caused changes in the midpoint of protein unfolding (Tm) of less than 2 °C) | 1460 | 105 ± 20 | Nts^b (no binding observed in thermal shift assays, i.e., compounds caused changes in the midpoint of protein unfolding (Tm) of less than 2 °C) | – | 0.46 | – | N value, R1 [5, 21]: 0.21
Nc1nc2c(ncn2[C@@H]2O[C@H](CO)[C@@H](O)[C@H]2O)c(=O)[nH]1 [Guanosine] | – | – | – | Nts^b (no binding observed in thermal shift assays, i.e., compounds caused changes in the midpoint of protein unfolding (Tm) of less than 2 °C) | 1.2 ± 0.1 | 25 ± 4.9 | Nts^b (no binding observed in thermal shift assays, i.e., compounds caused changes in the midpoint of protein unfolding (Tm) of less than 2 °C) | Nts^b (no binding observed in thermal shift assays, i.e., compounds caused changes in the midpoint of protein unfolding (Tm) of less than 2 °C) | 0.13 | – | Kd [1]: 37 ± 4 µM; N value, R15 [1]: 0.70; Kd [13]: 25 ± 5.2 µM; N value, R6 [13, 21]: 0.35; N value, R1 [5, 21]: 0.21; Binding in thermal shift assay, R10 [8]: Tsa^c (binding observed in thermal shift assays, i.e., compounds caused changes in Tm of more than 2 °C); Concentration causing high c-di-GMP levels ([14]; agar plates, wild-type R6 (VC2224)): 1 mM; Concentration at which colonies became wrinkly (onset of the response) ([14]; minimal medium agar plates, 24 h, 30 °C, wild-type R6): 100 µM; Binding in thermal shift assay, R11 [15]: Tsa^c (binding observed in thermal shift assays, i.e., compounds caused changes in Tm of more than 2 °C)
NC(=O)CC[C@H](N)C(=O)O [L-Gln] | – | – | – | – | – | – | – | – | – | did not produce any significant shift | –
N[C@@H](Cc1c[nH]c2ccccc12)C(=O)O [L-Trp] | – | – | – | – | – | – | – | – | – | did not produce any significant shift | –
c1ncc2nc[nH]c2n1 [Purine] | Nb^a | Nb^a | 2.3 ± 0.3 | Nts^b (no binding observed in thermal shift assays, i.e., compounds caused changes in the midpoint of protein unfolding (Tm) of less than 2 °C) | – | 94 ± 19 | – | – | 0.19 | – | Binding in microcalorimetric titration, R5 [17]: Nb^a
Cc1c[nH]c(=O)[nH]c1=O [Thymine] | Nb^a | – | 21 ± 0.4 | Nts^b (no binding observed in thermal shift assays, i.e., compounds caused changes in the midpoint of protein unfolding (Tm) of less than 2 °C) | 595 ± 47 | 32 ± 8.9 | Nts^b (no binding observed in thermal shift assays, i.e., compounds caused changes in the midpoint of protein unfolding (Tm) of less than 2 °C) | – | 0.99 | – | Kd ([2]; pH 7.0, 1 mM β-mercaptoethanol, read-out: Dissociation constant, R11): 854 ± 254 µM; N value, R1 [5, 21]: 0.20
O=c1[nH]c(=O)c2[nH]c(=O)[nH]c2[nH]1 [Uric acid] | Nb^a | Nb^a | – | Nts^b (no binding observed in thermal shift assays, i.e., compounds caused changes in the midpoint of protein unfolding (Tm) of less than 2 °C) | – | – | – | Nts^b (no binding observed in thermal shift assays, i.e., compounds caused changes in the midpoint of protein unfolding (Tm) of less than 2 °C) | – | – | Binding in thermal shift assay, R14 [18]: Nts^b (no binding observed in thermal shift assays, i.e., compounds caused changes in the midpoint of protein unfolding (Tm) of less than 2 °C); Binding in thermal shift assay, R1 [19]: Nts^b (no binding observed in thermal shift assays, i.e., compounds caused changes in the midpoint of protein unfolding (Tm) of less than 2 °C); Binding in thermal shift assay, R6 [7]: Nts^b (no binding observed in thermal shift assays, i.e., compounds caused changes in the midpoint of protein unfolding (Tm) of less than 2 °C); Binding in thermal shift assay, R10 (Supplementary Table 3) [8]: Nts (No binding observed in thermal shift assays, i.e. compounds caused changes in the midpoint of protein unfolding (Tm) of less than 2 ºC); Binding in microcalorimetric titration, R5 [17]: Nb^a
O=c1[nH]c(=O)c2nc[nH]c2[nH]1 [Xanthine] | – | Nb^a | – | Nts^b (no binding observed in thermal shift assays, i.e., compounds caused changes in the midpoint of protein unfolding (Tm) of less than 2 °C) | – | 5.1 ± 0.9 | – | Nts^b (no binding observed in thermal shift assays, i.e., compounds caused changes in the midpoint of protein unfolding (Tm) of less than 2 °C) | 0.13 | – | Kd [1]: 7.6 ± 1.1 µM; N value, R15 [1]: 0.05; Proteins that bound / recognized the ligand [20]: 2; Binding in microcalorimetric titration, R1 ([5]; ITC, 25 °C, pH 7.0): Nb^a; Binding in thermal shift assay, R6 [7]: Nts^b (no binding observed in thermal shift assays, i.e., compounds caused changes in the midpoint of protein unfolding (Tm) of less than 2 °C); N value, R8 ([11]; One binding site model, * = hyperbolic curve): 0.15; Binding in thermal shift assay, R10 [8]: Tsa^c (binding observed in thermal shift assays, i.e., compounds caused changes in Tm of more than 2 °C); Binding in microcalorimetric titration, R5 [17]: Nb^a
C[N+](C)(C)CCO [choline] | – | – | – | – | – | – | – | – | – | did not produce any significant shift | –
NCCO [ethanolamine] | – | – | – | – | – | – | – | – | – | did not produce any significant shift | –
CN [methylamine] | – | – | – | – | – | – | – | – | – | did not produce any significant shift | –
